Source: patent US20220378707A1, “1-(((2S,3S,4S)-3-ETHYL-4-FLUORO-5-OXOPYRROLIDIN-2-YL)METHOXY)-7-METHOXYISOQUINOLINE-6-CARBOXAMIDE COMBINATIONS AND ORAL DOSAGE FORMS” (Pfizer Inc., priority 2019, published 2022)

Test system: PBMC and HUVEC+T cell receptor (TCR) ligands
Assay: BioMAP SAg system
Assay type: cell-based, human
Conditions: for Inhibition of biomarker readouts in the SAg system: T cell-driven Th1 vascular inflammation, concentrations of FIGS. 12-16
Excerpt: The BioMAP systems consist of human primary cell-based systems designed to model different aspects of the human body in an in vitro format. The 12 systems tested characterized the test compounds across a broad set of systems modeling various human disease states. BioMAP systems were constructed with one or more primary cell types from healthy human donors, with stimuli (such as cytokines or growth factors) added to capture relevant signaling networks that naturally occur in human tissue or pathological conditions. Vascular biology was modeled in both a Th1 (3C system) and a Th2 (4H system) inflammatory environment, as well as in a Th1 inflammatory state specific to arterial smooth muscle cells (CASM3C system). Additional systems recapitulated aspects of the systemic immune response that included monocyte-driven Th1 inflammation (LPS system) or T cell stimulation (SAg system), chronic Th1 inflammation driven by macrophage activation (IMphg system) and the T cell-dependent activation of B cells that occurs in germinal centers (BT system). The BE3C system (Th1) and the BF4T system (Th2) represented airway inflammation of the lung, while the MyoF system modeled myofibroblast-lung tissue remodeling. Lastly, skin biology was addressed in the KF3CT system modeled Th1 cutaneous inflammation and the HDF3CGF system modeled wound healing.
All cells were from a pool of multiple donors (n=2-6), commercially purchased and handled according to the recommendations of the manufacturers. Human blood derived CD14+ monocytes were differentiated into macrophages in vitro before being added to the IMphg system. Abbreviations were used as follows: human umbilical vein endothelial cells (HUVEC), peripheral blood mononuclear cells (PBMC), human neonatal dermal fibroblasts (HDFn), B cell receptor (BCR), T cell receptor (TCR) and toll-like receptor (TLR). Cell types and stimuli used in each system were as follows:
3C system [HUVEC+(IL-1β, TNFα and IFNγ)]; 4H system [HUVEC+(IL-4 and histamine)]; LPS system [PBMC and HUVEC+LPS (TLR4 ligand)]; SAg system [PBMC and HUVEC+T cell receptor (TCR) ligands]; BT system [CD19+B cells and PBMC+(α-IgM and TCR ligands)]; BF4T system [bronchial epithelial cells and HDFn+(TNFα and IL-4)]; BE3C system [bronchial epithelial cells+(IL-1p, TNFα and IFNγ)]; CASM3C system [coronary artery smooth muscle cells+(IL-1p, TNFα and IFNγ)]; HDF3CGF system [HDFn+(IL-1β, TNFα, IFNγ, EGF, bFGF and PDGF-BB)]; KF3CT system [keratinocytes and HDFn+(IL-1β, TNFα and IFNγ)]; MyoF system [differentiated lung myofibroblasts+(TNFα and TGFβ)]; and IMphg system [HUVEC and M1 macrophages+Zymosan (TLR2 ligand)].
Systems were derived from either single cell types or co-culture systems. Adherent cell types were cultured in 96 or 384-well plates until confluence, followed by the addition of PBMC (SAg and LPS systems). The BT system consisted of CD19+B cells co-cultured with PBMC and stimulated with a BCR activator and low levels of TCR stimulation. Test agents were prepared in DMSO (final concentration <0.1%) and were added 1 hour before stimulation, and remained in culture for 24 hours or as otherwise indicated (48-hrs, MyoF system; 72-hrs, BT system (soluble readouts); 168-hrs, BT system (secreted IgG)). Each plate contained drug controls (e.g., legacy control test agent colchicine at 1.1 μM), negative controls (e.g., non-stimulated conditions) and vehicle controls (e.g., 0.1% DMSO) appropriate for each system. Direct ELISA was used to measure biomarker levels of cell-associated and cell membrane targets. Soluble factors from supernatants were quantified using either HTRF® detection, bead-based multiplex immunoassay or capture ELISA. Overt adverse effects of test agents on cell proliferation and viability (cytotoxicity) were detected by sulforhodamine B (SRB) staining, for adherent cells, and alamarBlue® reduction for cells in suspension.

| SMILES | Inhibition of biomarker readouts in the SAg system | Inhibition of biomarker readouts in the SAg system (listed as Tofacitinib) | Proliferation of T cells in the SAg system (concentrations of FIGS. 13-14) |
| --- | --- | --- | --- |
| CC[C@@H]1[C@H](F)C(=O)N[C@@H]1COc1nccc2cc(C(N)=O)c(OC)cc12 [PF-06650833, 1-(((2S,3S,4S)-3-Ethyl-4-fluoro-5-oxopyrrolidin-2-yl)methoxy)-7-methoxyisoquinoline-6-carboxamide] | no activity |  |  |
| C[C@@H]1CCN(C(=O)CC#N)C[C@@H]1N(C)c1ncnc2[nH]ccc12 [tofacitinib, 3-((3R,4R)-4-Methyl-3-(methyl(7H-pyrrolo[2,3-d]pyrimidin-4-yl)amino)piperidin-1-yl)-3-oxopropanenitrile] | CD38 and CD69 and modestly inhibited CD69 | CD38 and CD69 | antiproliferative activity |
